Results from ChEMBL document CHEMBL3885861, “Open TG-GATES”.

Species on record: Rattus norvegicus
Assay: Open TG-GATES - Regimen: Single
Type: toxicity, organism-based, Sprague-Dawley
Parameters: regimen Single, gender Male, age 6 weeks
Details: in vivo, po, route gavage; for gamma-GTP / ALP / ALT / AST / BUN / Ca / Cl / DBIL / GLC / IP / K / LDH / Na / PL / RALB / TBIL / TC / TP / CRE: tissue Plasma; for APTT / Bas / Eos / Fbg / Hb / Ht / Lym / MCH / MCHC / MCV / Mono / Neu / PT / Plat / RBC / Ret / WBC: tissue Blood; for KIDNEY_L / KIDNEY_R / KIDNEY_TOTAL: tissue Kidney; for LIVER: tissue Liver
[1] = 15 mg/kg, 24 h, dose level High
[2] = 50 mg/kg, 3 h, dose level Middle
[3] = 50 mg/kg, 6 h, dose level Middle

SMILES: O=P1(N(CCCl)CCCl)NCCCO1 (stereo unspecified) [CYCLOPHOSPHAMIDE ANHYDROUS]
- gamma-GTP (15 mg/kg, 9 h, dose level High): 1 IU/L
- ALP (15 mg/kg, 9 h, dose level Low): 1388.6 IU/L
- ALT (15 mg/kg, 9 h, dose level Low): 31.2 IU/L
- AST (15 mg/kg, 9 h, dose level Low): 67.6 IU/L
- BUN (15 mg/kg, 9 h, dose level Low): 8.2 mg/dL
- Ca (15 mg/kg, 9 h, dose level Low): 10.6 mg/dL
- Cl (15 mg/kg, 9 h, dose level Low): 106.6 meq/L
- DBIL (15 mg/kg, 9 h, dose level Low): 0.012 mg/dL
- GLC (15 mg/kg, 9 h, dose level Low): 163.8 mg/dL
- IP (15 mg/kg, 9 h, dose level Low): 10.3 mg/dL
- K (15 mg/kg, 9 h, dose level Low): 4.4 meq/L
- LDH (15 mg/kg, 9 h, dose level Low): 55.2 IU/L
- Na (15 mg/kg, 9 h, dose level Low): 142.2 meq/L
- PL (15 mg/kg, 9 h, dose level Low): 135.8 mg/dL
- RALB (15 mg/kg, 9 h, dose level Low): 2.5 g/dL
- TBIL (15 mg/kg, 9 h, dose level Low): 0.058 mg/dL
- TC (15 mg/kg, 9 h, dose level Low): 77.4 mg/dL
- TP (15 mg/kg, 9 h, dose level Low): 5.2 g/dL
- gamma-GTP (15 mg/kg, 9 h, dose level Low): 1.2 IU/L
- TERMINAL_BW [1]: 195.1 g
- TERMINAL_BW (15 mg/kg, 24 h, dose level Low): 205.2 g
- APTT [1]: 21.5 s
- Bas [1]: 0%
- Eos [1]: 0.8%
- Fbg [1]: 304 mg/dL
- Hb [1]: 13.6 g/dL
- Ht [1]: 40.8%
- Lym [1]: 88.2%
- MCH [1]: 21.2 pg
- MCHC [1]: 33.4%
- MCV [1]: 63.5 fL
- Mono [1]: 2.4%
- Neu [1]: 8%
- PT [1]: 16.2 s
- Plat [1]: 117.1 x10_4/uL
- RBC [1]: 643 x10_4/ul
- Ret [1]: 5.3%
- WBC [1]: 44.1 x10_2/uL
- APTT (15 mg/kg, 24 h, dose level Low): 17.5 s
- Fbg (15 mg/kg, 24 h, dose level Low): 286.4 mg/dL
- Hb (15 mg/kg, 24 h, dose level Low): 12.9 g/dL
- Ht (15 mg/kg, 24 h, dose level Low): 38.1%
- Lym (15 mg/kg, 24 h, dose level Low): 85.4%
- MCH (15 mg/kg, 24 h, dose level Low): 20.7 pg
- MCHC (15 mg/kg, 24 h, dose level Low): 34%
- MCV (15 mg/kg, 24 h, dose level Low): 60.9 fL
- Mono (15 mg/kg, 24 h, dose level Low): 2%
- Neu (15 mg/kg, 24 h, dose level Low): 11.2%
- PT (15 mg/kg, 24 h, dose level Low): 14.1 s
- Plat (15 mg/kg, 24 h, dose level Low): 116.3 x10_4/uL
- RBC (15 mg/kg, 24 h, dose level Low): 625.2 x10_4/ul
- Ret (15 mg/kg, 24 h, dose level Low): 6.8%
- WBC (15 mg/kg, 24 h, dose level Low): 48.9 x10_2/uL
- KIDNEY_L [1]: 0.9 g
- KIDNEY_R [1]: 0.9 g
- KIDNEY_TOTAL [1]: 1.8 g
- LIVER [1]: 8.6 g
- LIVER (15 mg/kg, 24 h, dose level Low): 9.1 g
- ALP [1]: 1751 IU/L
- ALT [1]: 45 IU/L
- AST [1]: 71 IU/L
- BUN [1]: 14.6 mg/dL
- CRE [1]: 0.2 mg/dL
- Ca [1]: 10.8 mg/dL
- Cl [1]: 104.8 meq/L
- DBIL [1]: 0.006 mg/dL
- GLC [1]: 179 mg/dL
- IP [1]: 8.4 mg/dL
- K [1]: 4.3 meq/L
- LDH [1]: 195.4 IU/L
- Na [1]: 142.4 meq/L
- PL [1]: 143.6 mg/dL
- RALB [1]: 3.1 g/dL
- TBIL [1]: 0.02 mg/dL
- TC [1]: 75 mg/dL
- TP [1]: 5.5 g/dL
- gamma-GTP [1]: 1.2 IU/L
- ALP (15 mg/kg, 24 h, dose level Low): 1404.4 IU/L
- ALT (15 mg/kg, 24 h, dose level Low): 40.2 IU/L
- AST (15 mg/kg, 24 h, dose level Low): 71.4 IU/L
- BUN (15 mg/kg, 24 h, dose level Low): 14.4 mg/dL
- Ca (15 mg/kg, 24 h, dose level Low): 11.1 mg/dL
- Cl (15 mg/kg, 24 h, dose level Low): 105.2 meq/L
- DBIL (15 mg/kg, 24 h, dose level Low): 0.02 mg/dL
- GLC (15 mg/kg, 24 h, dose level Low): 176.4 mg/dL
- IP (15 mg/kg, 24 h, dose level Low): 8.1 mg/dL
- K (15 mg/kg, 24 h, dose level Low): 4.5 meq/L
- LDH (15 mg/kg, 24 h, dose level Low): 82 IU/L
- Na (15 mg/kg, 24 h, dose level Low): 140.8 meq/L
- PL (15 mg/kg, 24 h, dose level Low): 159.4 mg/dL
- RALB (15 mg/kg, 24 h, dose level Low): 2.6 g/dL
- TBIL (15 mg/kg, 24 h, dose level Low): 0.06 mg/dL
- TC (15 mg/kg, 24 h, dose level Low): 87.6 mg/dL
- TP (15 mg/kg, 24 h, dose level Low): 5.6 g/dL
- gamma-GTP (15 mg/kg, 24 h, dose level Low): 1 IU/L
- TERMINAL_BW [2]: 190.4 g
- APTT [2]: 20 s
- Bas [2]: 0%
- Eos [2]: 0.8%
- Fbg [2]: 281.6 mg/dL
- Hb [2]: 13 g/dL
- Ht [2]: 38.9%
- Lym [2]: 78%
- MCH [2]: 20.6 pg
- MCHC [2]: 33.4%
- MCV [2]: 61.6 fL
- Mono [2]: 2.6%
- Neu [2]: 17.6%
- PT [2]: 13.8 s
- Plat [2]: 111.1 x10_4/uL
- RBC [2]: 631.6 x10_4/ul
- Ret [2]: 9.2%
- WBC [2]: 101.7 x10_2/uL
- KIDNEY_L [2]: 0.8 g
- KIDNEY_R [2]: 0.8 g
- KIDNEY_TOTAL [2]: 1.6 g
- LIVER [2]: 8.3 g
- ALP [2]: 1500.2 IU/L
- ALT [2]: 35.8 IU/L
- AST [2]: 72.6 IU/L
- BUN [2]: 10 mg/dL
- CRE [2]: 0.2 mg/dL
- Ca [2]: 11.1 mg/dL
- Cl [2]: 104.8 meq/L
- DBIL [2]: 0.018 mg/dL
- GLC [2]: 171.8 mg/dL
- IP [2]: 8.7 mg/dL
- K [2]: 4.4 meq/L
- LDH [2]: 72.6 IU/L
- Na [2]: 140.2 meq/L
- PL [2]: 160.4 mg/dL
- RALB [2]: 2.4 g/dL
- TBIL [2]: 0.068 mg/dL
- TC [2]: 86.6 mg/dL
- TP [2]: 5.3 g/dL
- gamma-GTP [2]: 1.4 IU/L
- TERMINAL_BW [3]: 187.5 g
- APTT [3]: 17.2 s
- Bas [3]: 0%
- Eos [3]: 0.6%
- Fbg [3]: 278.4 mg/dL
